# Where two headings read alike, the source gives them in different places.
# What was measured:
# [1] = tested on: Candida albicans (American Type Culture Collection strain 10231); assay: Control of Candida albicans infection in mice; assay type: in vivo; conditions: for % Survival: mortality over 10 days
# Protocol: Compound 1 (6-(4-chlorophenyl)-2-(2′-pentynyl)pyridazinone, described as compound 109 in European Patent Publication No. EP 478 195 A1) in 5% dimethylsulfoxide (DMSO) in saline solution was administered intraperitoneally 1 h before and at 4, 24, 48 and 72 h after intravenous inoculation with Candida albicans (American Type Culture Collection strain 10231). Ten mice were used for each treatment. Mortality was recorded over a period of 10 days.
# [2] = molecular target: T1, Yeast Δ-9 fatty acid desaturase (Saccharomyces cerevisiae, UniProt P21147); assay: Yeast microsomal Δ-9 fatty acid desaturase assay (14C-palmitoyl-CoA to palmitoleic acid); assay type: biochemical
# T1 construct: the resulting microsomal pellet suspended in 10 ml of ice-cold 0.1 M potassium phosphate buffer; endogenous in cells; host or cells: Saccharomyces cerevisiae ATCC strain 12341, microsomal fraction
# Protocol: The following method was used to prepare the microsomal Δ-9 fatty acid desaturase from yeast. Two 250 ml flasks containing 100 ml each of glucose-yeast extract medium (0.4% yeast extract and 2% glucose) were inoculated with Saccharomyces cerevisiae strain 12341 obtained from the American Type Culture Collection, and grown for 48 h at 30° C. with shaking at 250 rpm. The cells were used to inoculate a 4 liter flask containing 3.6 liters of medium. The cells were grown at 30° C. with gentle shaking at 90 rpm for 24 h. […]
# Delta-9 Fatty acid desaturase assays were performed by measuring the desaturation of ^14C-palmitoyl-CoA to palmitoleic acid using 0.5 ml reaction mixtures containing 0.1 M potassium phosphate buffer, pH 7.2, 1 mM NADH and 26 μM ^14C-palmitoyl-CoA (0.028 μCi per assay) in 13×100 mm glass culture tubes. […] The upper cyclohexane layer was removed and 100 μI analyzed by HPLC on a Supelcosil LC-18 column (25×4.6 mm) with methanol-water-phosphoric acid (90:9.9:0.1, by volume) as the mobile phase at a flow rate of 1 ml/min. A Packard A120 RAM detector was used to determine the amounts of radioactivity in the palmitic and palmitoleic acid fractions. The percent inhibition of desaturation was determined by comparing the production of palmitoleic acid in assays containing compound 1 with production in assays containing DMSO alone. […]
# [3] = molecular target: T2, Rat liver Δ-9 fatty acid desaturase (Rattus norvegicus, UniProt P07308); assay: Rat liver microsomal Δ-9 fatty acid desaturase assay (14C-palmitoyl-CoA to palmitoleic acid); assay type: biochemical
# T2 construct: The upper gelatinous layer is the microsomal fraction; from tissue; host or cells: liver of Sprague-Dawley rats (starved, then fed a fat-free diet), microsomal fraction
# T2 sequence (P07308 1-358): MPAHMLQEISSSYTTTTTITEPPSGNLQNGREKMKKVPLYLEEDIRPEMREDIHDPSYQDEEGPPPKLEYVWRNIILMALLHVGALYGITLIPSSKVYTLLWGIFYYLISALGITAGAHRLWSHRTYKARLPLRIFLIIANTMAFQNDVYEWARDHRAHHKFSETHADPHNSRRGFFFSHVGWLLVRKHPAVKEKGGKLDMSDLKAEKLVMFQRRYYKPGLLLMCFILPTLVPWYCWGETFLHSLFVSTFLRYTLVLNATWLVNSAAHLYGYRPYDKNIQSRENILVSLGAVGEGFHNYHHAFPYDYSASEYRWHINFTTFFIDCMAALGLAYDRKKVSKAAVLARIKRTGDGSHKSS
# Protocol: The following method was used to prepare the microsomal Δ-9 fatty acid desaturase from rat liver. Sprague-Dawley rats weighing between 120 and 180 g were fed with Purina laboratory chow, starved for 48 h, then fed with a “Fat-Free” test diet (Nutritional Biochemical Corporation) for 20 h. Livers were removed and placed in cold […] Tris-acetate buffer, pH 8.1, containing 0.25 M sucrose and 1 mM EDTA. The tissue was washed twice with 10 volumes of cold buffer, blotted dry and weighed. The tissue was minced and homogenized in 5 ml of buffer per gram of tissue using a glass homogenizer with a loose fitting Teflon pestle. […]
# Delta-9 Fatty acid desaturase assays were performed by measuring the desaturation of ^14C-palmitoyl-CoA to palmitoleic acid using 0.5 ml reaction mixtures containing 0.1 M potassium phosphate buffer, pH 7.2, 1 mM NADH and 26 μM ^14C-palmitoyl-CoA (0.028 μCi per assay) in 13×100 mm glass culture tubes. […] The upper cyclohexane layer was removed and 100 μI analyzed by HPLC on a Supelcosil LC-18 column (25×4.6 mm) with methanol-water-phosphoric acid (90:9.9:0.1, by volume) as the mobile phase at a flow rate of 1 ml/min. A Packard A120 RAM detector was used to determine the amounts of radioactivity in the palmitic and palmitoleic acid fractions. […] The concentration of compound 1 which inhibited production of palmitoleic acid by 50% was determined from dose-response curves.
# [4] = tested on: Saccharomyces cerevisiae (strain X2180-1A); assay: Effect of fatty acids on fungitoxicity (growth inhibition, absorbance at 700 nm); assay type: cell-based; conditions: 22 h
# Protocol: (§1) Fifty ml of YPG culture medium (10 g yeast extract, 20 g peptone, and 20 g glucose per liter of water) in a 250 ml Erlenmeyer flask was inoculated with Saccharomyces cereviae (strain X2180-1A) to give an absorbance at 700 nm of 0.02. This culture was incubated for 18 h at 30° C. with shaking at 225 rpm. The cells were harvested by centrifugation, washed once with SD medium (6.7 g Bacto-yeast nitrogen base and 20 g glucose per liter of water), and suspended in SD medium to give an Absorbance at 700 nm of 0.04. Aliquots (5 ml) of cell suspension were distributed in 20 ml capacity glass vials. Treatments containing compound 1 or cerulenin received 25 μl of a solution of compound in dimethylsulfoxide (DMSO) at 240 ppm or 160 ppm, respectively. Control treatments without compound 1 or cerulenin received 25 ul DMSO. Treatments containing a fatty acid received 25 μl of a 2 mM solution of the fatty acid in a 1% solution of Triton X-100 providing a concentration of 10 μM. Treatments without fatty acid received 25 ul of 1% Triton X-100. All treatments were carried out in duplicate. Vials were incubated for 22 h at 30° C. with shaking at 225 rpm. Growth of the cells was then estimated by diluting the cells in each treatment 3-fold with SD medium and measuring the asorbance at 700 nm. The results in Table 3 show inhibition of growth expressed as a percentage of growth in DMSO controls containing Triton X-100 but lacking Compound 1, cerulenin or fatty acid.
# [5] = tested on: S. cerevisiae; assay: Growth inhibition of S. cerevisiae by compound 1; assay type: cell-based; conditions: Saccharomyces cerevisiae, 18 h
# Protocol: as §1
# (§2) S. cerevisiae was grown in SD medium as 5 ml aliquots of cell suspension in 20 ml capacity glass vials as described in example 3 in the absence (controls) and presence of compound 1. Compound 1 was added as 25 μl of solution in DMSO, and controls received 25 ul DMSO alone. After growth for 18 h at 30° C. with shaking at 225 rpm, inhibition of growth by compound 1 was determined as described in example 3, and the fatty acid composition was determined as follows. The cells were centrifuged in 20 ml borosilicate glass culture tubes at 2000 rpm. The supernatant was decanted, and the cells were re-suspended in 10 ml of water and re-centrifuged at 2000 rpm. The supernatant was decanted, and the cells were saponified by heating at 80° C. for 1 hour in 2.5 ml of 10% potassium hydroxide solution in 90% methanol/10% water. The non-saponifiable lipids were removed by extracting the basic solution with 2×3 ml of cyclohexane. The basic solution was then acidified to pH 2 with 6N hydrochloric acid, and the acidic solution was again extracted with 2×3 ml of cyclohexane. These extracts were analyzed directly by capillary gas chromatography using an HP5890 gas chromatograph equipped with a Restek Stabilwax DB capillary column (30m×0.53 mm i.d.×0.25 μm film thickness) and a flame ionization detector. Analyses were run at 225° C. isothermally, and compared to a sample free fatty acid mixture prepared from authentic standards purchased from Sigma.
# [6] = tested on: S. cerevisiae; assay: Fatty acid composition of S. cerevisiae after treatment (capillary gas chromatography); assay type: cell-based, Saccharomyces cerevisiae; conditions: 18 h
# Protocol: as §2
# [7] = microsomal preparation, 26 μM 14C-palmitoyl-CoA, 30° C., 5 min
# T1 sequence (P21147 whole entry, stated change not applied): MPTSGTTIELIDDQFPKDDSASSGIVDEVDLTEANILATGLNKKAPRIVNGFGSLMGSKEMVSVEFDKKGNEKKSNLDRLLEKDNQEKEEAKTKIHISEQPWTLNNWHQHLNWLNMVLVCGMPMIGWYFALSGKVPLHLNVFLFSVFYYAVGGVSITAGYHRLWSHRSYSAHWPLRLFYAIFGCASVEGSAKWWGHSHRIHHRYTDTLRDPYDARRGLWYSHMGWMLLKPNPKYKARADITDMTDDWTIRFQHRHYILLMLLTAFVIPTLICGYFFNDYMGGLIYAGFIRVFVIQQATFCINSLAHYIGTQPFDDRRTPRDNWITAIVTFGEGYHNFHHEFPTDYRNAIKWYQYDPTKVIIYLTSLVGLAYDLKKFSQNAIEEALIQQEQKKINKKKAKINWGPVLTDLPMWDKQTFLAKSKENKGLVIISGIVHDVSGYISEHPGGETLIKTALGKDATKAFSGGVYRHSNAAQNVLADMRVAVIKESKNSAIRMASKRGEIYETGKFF
smiles,measurement,setting,value
"C[C@@H]1[C@H](O)[C@@H](C)/C=C/C=C/C=C/C=C/C=C/C=C/C=C/[C@H](O[C@@H]2O[C@H](C)[C@@H](O)[C@H](N)[C@@H]2O)C[C@@H]2O[C@](O)(C[C@@H](O)C[C@@H](O)[C@H](O)CC[C@@H](O)C[C@@H](O)CC(=O)O[C@H]1C)C[C@H](O)[C@H]2C(=O)O [Amphotericin B, reference compound]",% Survival,[1]; 10 mg/kg,100%
"CCC#CCn1nc(-c2ccc(Cl)cc2)ccc1=O [Compound 1, 6-(4-chlorophenyl)-2-(2′-pentynyl)pyridazinone]",Inhibition of Candida albicans infection in mice (in words),[1],effective inhibitor
same,% Survival,[1]; 10 mg/kg,20%
same,% Survival,"[1]; 30 mg/kg intraperitoneally 1 h before and 4, 24, 48, 72 h after i.v. inoculation",40%
same,% Survival,"[1]; 100 mg/kg intraperitoneally 1 h before and 4, 24, 48, 72 h after i.v. inoculation",50%
same,Inhibition of fungal Δ-9 fatty acid desaturase (in words),[2],potent inhibitor
same,Yeast desaturase EC50,[2]; [7],0.055 ppm
same,Inhibition of mammalian Δ-9 fatty acid desaturase (in words),[3],does not inhibit
same,Rat liver desaturase EC50,[3]; [7],>100 ppm
same,inhibition at 1.2 ppm,[4]; no fatty acid,76.9%
same,inhibition at 1.2 ppm,[4]; oleic acid 10 μM,18.7%
same,inhibition at 1.2 ppm,[4]; palmitic acid 10 μM,95.5%
same,inhibition at 1.2 ppm,[4]; palmitoleic acid 10 μM,21.8%
same,inhibition at 1.2 ppm,[4]; pentadecanoic acid 10 μM,96.7%
same,inhibition at 0.0625 µg/mL,[5]; 0.0625 μg/ml,10.1%
same,inhibition at 0.125 µg/mL,[5]; 0.125 μg/ml,14.3%
same,inhibition at 0.25 µg/mL,[5]; 0.25 μg/ml,19.1%
same,inhibition at 0.5 µg/mL,[5]; 0.5 μg/ml,38.7%
same,inhibition at 1 µg/mL,[5]; 1 μg/ml,54.4%
same,inhibition at 2 µg/mL,[5]; 2 μg/ml,66.4%
same,oleic acid per milligram dry weight of cells,[6]; 0.0625 μg/ml,8.5 µg/mg
same,palmitic acid per milligram dry weight of cells,[6]; 0.0625 μg/ml,7.1 µg/mg
same,palmitoleic acid per milligram dry weight of cells,[6]; 0.0625 μg/ml,14.2 µg/mg
same,stearic acid per milligram dry weight of cells,[6]; 0.0625 μg/ml,2.8 µg/mg
same,oleic acid per milligram dry weight of cells,[6]; 0.125 μg/ml,4.3 µg/mg
same,palmitic acid per milligram dry weight of cells,[6]; 0.125 μg/ml,6.5 µg/mg
same,palmitoleic acid per milligram dry weight of cells,[6]; 0.125 μg/ml,14 µg/mg
same,stearic acid per milligram dry weight of cells,[6]; 0.125 μg/ml,3.1 µg/mg
same,oleic acid per milligram dry weight of cells,[6]; 0.25 μg/ml,2.7 µg/mg
same,palmitic acid per milligram dry weight of cells,[6]; 0.25 μg/ml,6 µg/mg
same,palmitoleic acid per milligram dry weight of cells,[6]; 0.25 μg/ml,3 µg/mg
same,stearic acid per milligram dry weight of cells,[6]; 0.25 μg/ml,3 µg/mg
same,oleic acid per milligram dry weight of cells,[6]; 0.5 μg/ml,1.1 µg/mg
same,palmitic acid per milligram dry weight of cells,[6]; 0.5 μg/ml,5.2 µg/mg
same,palmitoleic acid per milligram dry weight of cells,[6]; 0.5 μg/ml,1 µg/mg
same,stearic acid per milligram dry weight of cells,[6]; 0.5 μg/ml,4.7 µg/mg
same,oleic acid per milligram dry weight of cells,[6]; 1 μg/ml,1.2 µg/mg
same,palmitic acid per milligram dry weight of cells,[6]; 1 μg/ml,6.7 µg/mg
same,palmitoleic acid per milligram dry weight of cells,[6]; 1 μg/ml,0 µg/mg
same,stearic acid per milligram dry weight of cells,[6]; 1 μg/ml,5 µg/mg
same,oleic acid per milligram dry weight of cells,[6]; 2 μg/ml,0.5 µg/mg
same,palmitic acid per milligram dry weight of cells,[6]; 2 μg/ml,5 µg/mg
same,palmitoleic acid per milligram dry weight of cells,[6]; 2 μg/ml,0 µg/mg
same,stearic acid per milligram dry weight of cells,[6]; 2 μg/ml,4.2 µg/mg
"C/C=C/C/C=C/CCC(=O)[C@H]1O[C@H]1C(N)=O [Cerulenin, cerulenin, reference compound]",inhibition at 0.8 ppm,"[4]; read-out: % Inhibition of growth, 0.8 ppm, no fatty acid, 22 h",35.6%
same,inhibition at 0.8 ppm,"[4]; read-out: % Inhibition of growth, 0.8 ppm, oleic acid 10 μM, 22 h",3.3%
same,inhibition at 0.8 ppm,"[4]; read-out: % Inhibition of growth, 0.8 ppm, palmitic acid 10 μM, 22 h",15.2%
same,inhibition at 0.8 ppm,"[4]; read-out: % Inhibition of growth, 0.8 ppm, palmitoleic acid 10 μM, 22 h",4.5%
same,inhibition at 0.8 ppm,"[4]; read-out: % Inhibition of growth, 0.8 ppm, pentadecanoic acid 10 μM, 22 h",20.3%

# Source: patent US20050095663A1, “Process for screening fungitoxic compounds” (priority 2002, published 2005)
